SMILES strings stand for the structures.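 Dose response: 5 concentrations. Exposure: 48 h. Format: 96-well plates. Endpoint: linear interpolation; highest concentration if not reached. GI50 marks 50% less growth.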 Activity calls are given as the source filed them. No stated cut-off is given here; in the data, active = GI50 up to about 1.1 µM and inactive = higher.

Holding throughout (experiment): inhibition of tumour cell growth, NCI panel, 48 h
For test [1], the system named is SF-539.
The subject of test [2] is HCT-15.
For test [3], the system named is K562.
For test [4], the system named is HT-29.
The test system of test [5] is NCI-H460.
In test [6] the test system is EKVX.
Test [7] relates to UO-31.
Test [8] concerns A549.
Test [9] relates to OVCAR-4.
Test [10] has as its system SF-295.
Test [11] has as its system SK-OV-3.
Test [12] deals with 786-0.
For test [13], the system named is HCT-116.
Test [14] has as its system OVCAR-3.
Test [15] relates to LOX IMVI.
In test [16] the test system is COLO 205.
The test system of test [17] is HOP-92.

Regarding `C(=N\OCc1ccccc1)/c1ncccc1C1OCCO1`, the GI50 in test [1] was > 100 µM (inactive); in [2], over 100 µM; in test [3], > 100 µM (inactive); in test [4] it was > 100 µM (inactive); in test [5], > 100 µM (inactive); in [6], > 100 µM (inactive). Further, the GI50 in test [7], in test [8], in test [9], in test [10], in [11] and in test [12] was > 100 µM (inactive) throughout. The GI50 in [13], in test [14], in test [15], in [16] and in test [17] was > 100 µM (inactive) in each case.

Take `O=c1c2cc(Br)ccc2nc(CCl)n1-c1ccc(O)c([N+](=O)[O-])c1`: the GI50 in test [1] is 19.2 µM (inactive); in [2], 19.7 µM; in [3] it was 22.4 µM (inactive); in [4], 27.7 µM (inactive); in [5], 34.1 µM (inactive); in test [6] it was 17.5 µM (inactive). The GI50 in test [7] was 15.5 µM (inactive); in [8], 22.4 µM (inactive); in [9], 18.7 µM (inactive); in [10], 16.3 µM (inactive); in test [11], 37.8 µM (inactive); in test [12], 16.1 µM (inactive). Further, the GI50 in test [14] is 18.2 µM (inactive); in test [15] it was 19 µM (inactive); in [16], 20.3 µM (inactive); in test [17], 29.2 µM (inactive).

Turning to `OCC1OC(c2nc(C3=NCCCN3)cs2)C(O)C1O` (centres undefined), the GI50 was > 100 µM (inactive) in test [1]; over 100 µM in test [2]; > 100 µM (inactive) in test [3]; > 100 µM (inactive) in test [4]; > 100 µM (inactive) in test [5]; > 100 µM (inactive) in [6]. Besides, the GI50 in [7] is > 100 µM (inactive); in [8], > 100 µM (inactive); in test [9] it was > 100 µM (inactive); in test [10], > 10 µM (inactive); in test [11], > 100 µM (inactive); in test [12] it was > 100 µM (inactive). Also, the GI50 is > 100 µM (inactive) in test [13]; > 10 µM (inactive) in test [14]; > 100 µM (inactive) in test [15]; > 100 µM (inactive) in test [16]; > 100 µM (inactive) in [17].

On to `COC(=O)/C([Se]c1c(C)cc(C)cc1C)=C(/[Se]c1c(C)cc(C)cc1C)C(=O)OC`, for which the GI50 in [1] was > 100 µM (inactive); in [2], 81.3 µM; in [3], > 100 µM (inactive); in test [4], 91.2 µM (inactive); in [5] it was 78.7 µM (inactive); in test [6] it was > 100 µM (inactive). The GI50 in test [7], in test [8], in test [9], in test [10], in test [11] and in test [12] was > 100 µM (inactive) each time. For the same molecule, the GI50 was > 100 µM (inactive) in test [13]; > 100 µM (inactive) in test [14]; > 100 µM (inactive) in [15]; > 100 µM (inactive) in test [16]; 68.4 µM (inactive) in test [17].

As to `Ic1cc2c(cc1C1SCCCS1)OCO2`, the GI50 in [1] is > 100 µM (inactive); in [2], over 100 µM; in [3] it was > 100 µM (inactive); in [4], > 100 µM (inactive); in [5], > 100 µM (inactive); in test [6] it was > 100 µM (inactive). Further, the GI50 in test [7], in test [8], in [9], in test [10], in test [11] and in test [12] was > 100 µM (inactive) each time. In addition, the GI50 in [13], in [14], in [15], in test [16] and in test [17] was > 100 µM (inactive) each time.

`C=C1CCc2occ(C)c2C2C1C1=C(CC(C)C1=O)C1OC12C` (centres undefined): the GI50 in test [1] is > 100 µM (inactive); in [2], over 100 µM; in [3], > 100 µM (inactive); in test [4] it was > 100 µM (inactive); in test [5] it was > 100 µM (inactive); in test [6], > 100 µM (inactive). Besides, the GI50 in test [7] is 4.03 µM (inactive); in test [8] it was > 100 µM (inactive); in [9], > 100 µM (inactive); in [10] it was > 100 µM (inactive); in test [11], > 100 µM (inactive); in test [12], > 100 µM (inactive). Also, the GI50 is 83 µM (inactive) in [13]; > 100 µM (inactive) in [14]; > 100 µM (inactive) in test [15]; > 100 µM (inactive) in [16]; > 100 µM (inactive) in test [17].

For `Cc1nc(=O)n2c(c1C(=O)Nc1ccc(Cl)cc1)NCCC2`, the GI50 in test [1] was > 100 µM (inactive); in test [2], over 100 µM; in [3], > 100 µM (inactive); in [4] it was > 100 µM (inactive); in test [5] it was > 100 µM (inactive); in test [6], > 100 µM (inactive). The GI50 in test [8], in [9], in test [10], in test [11], in test [12] and in [13] was > 100 µM (inactive) throughout. Besides, the GI50 in [14], in test [15], in [16] and in test [17] was > 100 µM (inactive) throughout.

On to `O=C(CSc1nc(-c2ccccc2)c(-c2ccccc2)[nH]1)N/N=C/c1ccc([N+](=O)[O-])cc1`, for which the GI50 in test [1] was 16 µM (inactive); in test [2], 14 µM; in test [4] it was 19.2 µM (inactive); in test [5] it was 19.4 µM (inactive); in test [7], 14.7 µM (inactive); in test [8] it was 29.6 µM (inactive). The GI50 in test [9] was 23 µM (inactive); in test [10], 19.8 µM (inactive); in test [11], 14.5 µM (inactive); in [12] it was 16.8 µM (inactive); in [13] it was 18.7 µM (inactive); in test [14], 15.1 µM (inactive). The GI50 in test [15] was 15.9 µM (inactive); in [16], 16.7 µM (inactive); in test [17] it was 13.8 µM (inactive).

With `COc1cc2c(c(OC)c1OC)-c1ccc(SC)c(=O)cc1[C@@H](NC(=O)c1ccc(C#N)cc1)CC2`, the GI50 was < 0.01 µM (active) in test [1]; under 0.01 µM in test [2]; < 0.01 µM (active) in [3]; < 0.01 µM (active) in [4]; < 0.01 µM (active) in test [5]; < 0.01 µM (active) in [6]. In addition, the GI50 in test [7], in test [8], in test [9], in [10], in test [11] and in [12] was < 0.01 µM (active) each time. For the same molecule, the GI50 in [13], in [14], in test [15], in test [16] and in [17] was < 0.01 µM (active) throughout.

The values are drawn from ChEMBL document CHEMBL1201862, “PubChem BioAssay data set” (2004).
